Source: patent publication US5559110A, “Pharmaceutical formulations of cyclic urea type compounds” (The DuPont Merck Pharmaceutical Company, priority 1994, dated 1996)
≈ marks a conversion by molar mass, not a printed value.

Tests used:
[1] = format: physicochemical
Method: Vehicles were evaluated for their capacity to solubilize a cyclic urea compound. Several methods were used. In Method A, vehicles were heated to 70°-80° C. and weighed amounts of the cyclic urea compound were added incrementally until the compound no longer dissolved. This is a visual estimation of solubility. In Method B, vehicles were prepared as in Method A, then cooled to room temperature, and then reheated to 50° C. Suspensions were filtered at 50° C. and compound concentrations in the liltrate filtrate were measured using a high performance liquid chromatographic (HPLC) method, providing the results shown under Method B.
Specifically, the vehicles of Table 1 were prepared and evaluated for solubility of a cyclic urea antiviral agent. The agent for Example 1 was [4R--(4a, 5a, 6β, 7β)]-hexahydro-5,6-bis(hydroxy)-1,3-bis([(4-hydroxymethyl)phenyl]methyl)-4,7-bis(phenylmethyl)-2H-1,3-diazepin-2-one. This compound corresponds to Ex. No. 5U in the above-cited PCT Application WO 93/07128, and is sometimes hereinafter referred to as Ex. No. 5U. In Table 1, all percentages are by weight.

physchem = format: physicochemical
Text: The cyclic urea antiviral agents of this invention are generally poorly water-soluble. Poor water solubility could be related to low oral bioavailability and dose-related bioavailability. One effect of the formulation ingredients may be to alter water solubility. Water solubility in the presence of dilute concentrations of the formulation ingredients could then be related to oral bioavailability. Dilute formulation ingredients could mimic the dilution of an administered dosage form upon reaching the aqueous environment within the gastrointestinal tract. Aqueous solubility studies of cyclic urea antiviral agents were performed in the presence of dilute concentrations of possible formulation ingredients in this Example 4.
Specifically, aqueous solutions were prepared containing 4% (w/v) of the formulation ingredients listed. Excess solid compound [4R-(4α, 5α, 6β, 7β)]-hexahydro-5,6-bis (hydroxy)-1,3-bis ([(4-hydroxymethyl)phenyl]methyl)-4,7-bis (phenylmethyl)-2H-1,3-diazepin-2-one (Ex. No. 5U) was added and the samples were mixed 24 hours. Samples were filtered, and Ex. No. 5U solubility was determined by measuring filtrate drug concentrations using HPLC.

[2] = in vivo; cited from earlier work

| SMILES | solubility in vehicle (in words) [1] | solubility at 24 h (physchem; 4% peg-60 hydrogenated castor oil, organic solvent or mixture) [µg/mL] | solubility at 24 h (physchem; water) [µg/mL] | solubility at 24 h (physchem; water with 4% peg-8, organic solvent or mixture) [µg/mL] | solubility at 24 h (physchem; water, 4% gelucire 44/14) [µg/mL] | solubility at 24 h (physchem; water, 4% glycerol dilaurate, organic solvent or mixture) [µg/mL] | solubility at 24 h (physchem; water, 4% labrasol) [µg/mL] | solubility at 24 h (physchem; water, 4% peg-4 laurate, organic solvent or mixture) [µg/mL] | solubility at 24 h (physchem; water, 4% peg-8 laurate, organic solvent or mixture) [µg/mL] | solubility at 24 h (physchem; water, 4% peg-8 stearate, organic solvent or mixture) [µg/mL] | solubility at 24 h (physchem; water, 4% peg-40 stearate, organic solvent or mixture) [µg/mL] | oral bioavailability (in words) [2] |
| --- | --- | --- | --- | --- | --- | --- | --- | --- | --- | --- | --- | --- |
| O=C1N(Cc2ccc(CO)cc2)[C@H](Cc2ccccc2)[C@H](O)[C@@H](O)[C@@H](Cc2ccccc2)N1Cc1ccc(CO)cc1 [Ex. No. 5U, [4R-(4α, 5α, 6β, 7β)]-hexahydro-5,6-bis(hydroxy)-1,3-bis([(4-hydroxymethyl)phenyl]methyl)-4,7-bis(phenylmethyl)-2H-1,3-diazepin-2-one] | increased solubility | 715 (≈ 1260 µM) | 5 (≈ 8.82 µM) | 12 (≈ 21.2 µM) | 758 (≈ 1340 µM) | 11 (≈ 19.4 µM) | 410 (≈ 723 µM) | 81 (≈ 143 µM) | 283 (≈ 499 µM) | 44 (≈ 77.6 µM) | 718 (≈ 1270 µM) |  |
| COC1=CC(=O)C[C@@H](C)[C@]12Oc1c(Cl)c(OC)cc(OC)c1C2=O [griseofulvin] |  |  |  |  |  |  |  |  |  |  |  | increased |
